In test [1] the test system is K562. The test can be described thus: In vitro inhibitory activity against K562 leukemia cells in the presence of pd2. In kind it is functional, cell-based. The note with it: Homo sapiens.
Test [2] has as its system K562. The test can be described thus: In vitro inhibitory activity against K562 leukemia cells. In kind it is functional, cell-based. The note with it: Homo sapiens.

With `CO[C@@]12[C@H](COC(N)=O)C3=C(C(=O)C(C)=C(N)C3=O)N1C[C@@H]1N[C@@H]12` [MITOMYCIN], the figures for the IC50 with K562 [1] and in the test on K562 [2] were 15.8 nM and 1 nM, respectively. Take `CC1=C(N)C(=O)c2c(COC(N)=O)c3n(c2C1=O)C[C@H](N)[C@@H]3O`: the midpoint of inhibition in the test on K562 [2], the IC50, lay at 33 nM.

Source of the values: ChEMBL document CHEMBL1136778, “Mitomycin antitumor compounds. 2. Interaction of transition metal ions with mitomycin C. Solution structure and biological activity of a Pd(2+)-MMC complex” (J Med Chem, 2003).
